Assays:
PS2/1C = experiment: Inhibition of chimeric presenilin PS2/1C; format: cell-based, human; conditions: chimeric PS1/PS2 molecule, FIG. 11
From the text: Human PS1, PS2, and APPsw cDNA inserts were subcloned into pCF vector, which was modified with pcDNA3 (Invitrogen, CA, USA) by inserting the adenoviral tripartite leader sequence (Berkner et al, (1987) J. Virol. April; 61(4): 1213-20. Abundant expression of polyomavirus middle T antigen and dihydrofolate reductase in an adenovirus recombinant) 38 bp upstream of the starting ATG codon, between the CMV promoter and the EcoR1 site. Construction of presenilin chimeras was PCR-based. For making chimeras that contain PS1backbone and a PS2 fragment, we first generated a large PCR fragment that contained the entire pCF vector plus all PS1 sequence to be retained, and a small PCR fragment that only contained the PS2 fragment to be used in the final chimera. The two PCR fragments were then ligated in a blunt-end fashion by Rapid DNA ligation kit (Roche, Ind., USA). We used pfu Turbo DNA polymerase kit (Strategene, Calif., USA) for all PCR reactions. To avoid potential mutations introduced by PCR, we first sequenced the entire insert in both strands. […] For making chimeras that contained PS2 backbone and a PS1 fragment, we first generated a large PCR fragment that contained the entire pCF vector plus all PS2 sequence to be retained, and a small PCR fragment that only contained the PS1 fragment to be used in the final chimera. All other cloning procedures were the same as described above. […]

[1] = system: Presenilin-1-comprised γ-secretase relative to Presenilin-2-comprised γ-secretase; experiment: PS1/PS2 selectivity: ratio of EC50 in Presenilin-2 and Presenilin-1 transfected cells; format: cell-based, human; conditions: mean values from 2 independent experiments (FIG. 11)
From the text: EC50 values were derived by curve fitting of Aβ1-x levels, for samples treated with various concentrations of gamma secretase inhibitors, with XLfit software program (IDBS, Alameda, Calif., USA). Differences in EC50 values obtained for Presenilin-1 transfected cells and Presenilin-2 transfected cells exposed to a test compound served as an indicator of differential inhibition.
Cell culture medium is then removed from the transfected cell lines and analyzed for Aβ1-x levels by ELISA assay, as described in Example 1. ELISA assays are performed using ELISA plates coated with the mAb 266 to capture Aβ peptides and then by detecting Aβ peptides with biotinylated mAb 3D6. EC50 values are derived for all of the test compounds. Differences in EC50 values obtained for Presenilin-1 transfected cells and Presenilin-2 transfected cells exposed to a test compound serve as an indicator of differential inhibition.
For example, several tested compounds are sulfonamide compounds, while several are non-sulfonamide compounds. The ratio of the EC50 value obtained for Presenilin-2 transfected cells and Presenilin-1 transfected cells (indicated in the last column of Table I) indicates the degree to which the test compound is capable of preferentially inhibiting Presenilin-1. […] In Table 2, the values shown in columns A, B and C are EC50 values (nM). Where inhibition was very low, EC50 values were not generated by the program; thus EC50 values are not provided. Rather, percent of inhibition was estimated based on the inhibition curve generated by the program. Percentages indicate percentage inhibition at a compound concentration of 10 uM. […]

Question: For BMS299897 [reference compound], which “inhibitor potencies against PS2/1C compared with PS1” value (PS2/1C) is on record?
Answer: Its value is “behaved just like PS1”.

Question: And the “fold more selective for PS1” value [1]?
Answer: The value was about 35 fold.
